Entries after “also recorded” stand apart in the source; their conditions may differ.
What follows are molecules tested on human blood bacterium (HBB). Conditions: not given.
Format: cell-based

Row | Molecule | effect on HBB growth in culture | optimum concentration for stimulation of HBB growth | effect on reduction of cell wall-defective forms
1 | OCCS [2-mercaptoethanol] | no significant effect |  | 
2 | CC(=O)N[C@@H](CS)C(=O)O [N-acetyl cysteine] | Little or no stimulation or inhibition; also recorded: no significant effect |  | 
3 | NC12CC3CC(CC(C3)C1)C2 [amantadine, reference compound] | Little or no stimulation or inhibition |  | 
4 | N.N.O=S(=O)(O)O [ammonium sulfate] | Little or no stimulation or inhibition; also recorded: no effect |  | 
5 | [N-]=[N+]=[N-] [azide, reference compound] | little effect on growth |  | 
6 | CCO [ethanol] | Some stimulation of growth |  | 
7 | OO [hydrogen peroxide] | might also be stimulated |  | 
8 | [Fe] [iron] | stimulated |  | 
9 | CC(C)CCO [isoamyl alcohol] | Some stimulation of growth |  | 
10 | [Mn+2] [manganese] | stimulated | 1 µg/mL | 
11 | CO [methanol] | minimal or no stimulation of growth |  | 
12 | CSCC[C@H](N)C(=O)O [methionine] | appears to do so less consistently |  | 
13 | CN(C)c1ccc2nc3ccc(=[N+](C)C)cc-3sc2c1 [methylene blue] | Little or no stimulation or inhibition |  | 
14 | C1COCCN1 [morpholine] | slight stimulation |  | 
15 | C[C@@H](O[C@H]1[C@H](O)[C@@H](CO)OC(O)[C@@H]1N)C(=O)O (some centres unmarked) [muramic acid] |  |  | no effect
16 | CCCCO [n-butanol] | Some stimulation of growth |  | 
17 | NCCCNCCCCNCCCN [spermine] | Little or no stimulation or inhibition |  | 
18 | (oxidized) arachidonate | might also be stimulated |  | 
19 | mercury | possibly; also recorded: stimulated |  | 
20 | titanium ethoxide | slight stimulation |  | 

Same assay, conditions: 2 μg/ml

Row | Molecule | effect on HBB growth in culture
21 | C[N+](C)(C)C[C@H](O)CC(=O)[O-] [L-carnitine] | Little or no stimulation or inhibition

Same assay, conditions: 3 μg/ml

Row | Molecule | effect on HBB growth in culture
22 | NCCOP(=O)(O)O [phosphorylethanolamine] | Little or no stimulation or inhibition

Same assay, conditions: 4 μg/ml

Row | Molecule | effect on HBB growth in culture
23 | O=C(O)c1cc(=O)[nH]c(=O)[nH]1 [orotic acid] | Little or no stimulation or inhibition

Same assay, conditions: 10 μg/ml

Row | Molecule | effect on HBB growth in culture
24 | OCCS [2-mercaptoethanol] | Little or no stimulation or inhibition
25 | O[C@@H](CS)[C@@H](O)CS [dithiotheitol] | Little or no stimulation or inhibition

Same assay, conditions: 14 μg/ml

Row | Molecule | effect on HBB growth in culture
26 | O=BOB(O)OB(O)OB=O [borax] | Little or no stimulation or inhibition
27 | O=c1ccc2[n+]([O-])c3ccc(O)cc3oc-2c1 [resazurin] | Little or no stimulation or inhibition
28 | CCN(CC)CN(CC)CC [tetraethylmethylenediamine] | slight stimulation

Same assay, conditions: 20 μg/ml

Row | Molecule | effect on HBB growth in culture
29 | N[C@@H](CS)C(=O)O [cysteine] | Little or no stimulation or inhibition
30 | NCCS(=O)(=O)O [taurine] | Little or no stimulation or inhibition

Same assay, conditions: 20 μg/ml; listed as Cysteine

Row | Molecule | effect on HBB growth in culture
31 | N[C@@H](CS)C(=O)O [cysteine] | appears to inhibit growth in some isolates

Same assay, conditions: 1/14 saturated

Row | Molecule | effect on HBB growth in culture
32 | O=C(c1ccccc1)c1ccccc1 [benzophenone] | slight stimulation
33 | c1ccc(Nc2ccccc2)cc1 [diphenylamine] | slight stimulation
34 | dichlorophenylenediamine | Little or no stimulation or inhibition

Same assay, conditions: added to ½ strength medium O or RPMI

Row | Molecule | effect on HBB growth in culture
35 | COC(C)=O [methyl acetate] | minimal or no stimulation of growth
36 | COP(=O)(OC)OC [trimethyl phosphate] | minimal or no stimulation of growth
37 | CN(C)C [trimethylamine] | minimal or no stimulation of growth

Same assay, conditions: addition of cell wall precursors

Row | Molecule | effect on reduction of cell wall-defective forms
38 | CC(=O)N[C@H]1C(O)O[C@H](CO)[C@@H](O)[C@@H]1O (some centres unmarked) [N-acetylglucosamine] | no effect
39 | CC(=O)N[C@H]1C(O)O[C@H](CO)[C@@H](O[C@@H]2O[C@H](CO)[C@H](O)[C@H](O)[C@H]2O)[C@@H]1O (some centres unmarked) [N-acetyllactoasamine] | no effect
40 | CC(=O)N[C@H]1C(O)O[C@H](CO)[C@@H](O)[C@@H]1O[C@H](C)C(=O)O (some centres unmarked) [N-acetylmuramic acid] | no effect
41 | N[C@H](CCC[C@H](N)C(=O)O)C(=O)O [diaminopimelic acid] | no effect

Same assay, conditions: concentration not printed

Row | Molecule | effect on HBB growth in culture
42 | CC(=O)N[C@H]1C(O)O[C@H](CO)[C@@H](O[C@@H]2O[C@H](CO)[C@H](O)[C@H](O)[C@H]2O)[C@@H]1O (some centres unmarked) [N-acetyllactoasamine] | some stimulation of culture growth
43 | [Cr] [chromium] | no inhibition of bacterial growth
44 | [Cu] [copper] | stimulated
45 | N[C@@H](CS)C(=O)O [cysteine] | suppresses growth of some strains; also recorded: stimulates other strains
46 | O[C@@H](CS)[C@@H](O)CS [dithiotheitol] | no significant effect
47 | O=C(CO)[C@@H](O)[C@H](O)[C@H](O)CO [fructose] | support growth
48 | OC[C@H]1O[C@@H](O[C@H]2[C@H](O)[C@@H](O)C(O)O[C@@H]2CO)[C@H](O)[C@@H](O)[C@H]1O (some centres unmarked) [lactose] | support growth
49 | [Mg+2] [magnesium] | little effect on the growth
50 | OC[C@H]1O[C@H](OCC2O[C@@H](O)[C@H](O)[C@@H](O)[C@@H]2O)[C@H](O)[C@@H](O)[C@H]1O (some centres unmarked) [meilibose] | support growth
51 | CN(Cc1cnc2nc(N)nc(N)c2n1)c1ccc(C(=O)N[C@@H](CCC(=O)O)C(=O)O)cc1 [methotrexate, reference compound] | no inhibition
52 | O=C(O)c1ccccn1 [picolinic acid] | Little or no stimulation or inhibition
53 | [I-].[K+] [potassium iodide] | Little or no stimulation or inhibition
54 | OC[C@H]1O[C@H](OC[C@H]2O[C@H](O[C@]3(CO)O[C@H](CO)[C@@H](O)[C@@H]3O)[C@H](O)[C@@H](O)[C@@H]2O)[C@H](O)[C@@H](O)[C@H]1O [raffinose] | support growth
55 | [Ag] [silver] | stimulated
56 | OC[C@H]1O[C@@](CO)(O[C@H]2O[C@H](CO)[C@@H](O)[C@H](O)[C@H]2O)[C@@H](O)[C@@H]1O [sucrose] | support growth
57 | NCCS(=O)(=O)O [taurine] | no effect on cultures
58 | [Sn] [tin] | stimulated
59 | [Zn] [zinc] | suppresses the growth; also recorded: inhibited
60 | chromium picolinate | Little or no stimulation or inhibition
61 | dextran | support growth
62 | silver proteinate | Little or no stimulation or inhibition

Same assay, conditions: ⅕ saturated

Row | Molecule | effect on HBB growth in culture
63 | COC1=C(OC)C(=O)C(C/C=C(\C)CC/C=C(\C)CC/C=C(\C)CC/C=C(\C)CC/C=C(\C)CC/C=C(\C)CC/C=C(\C)CC/C=C(\C)CC/C=C(\C)CCC=C(C)C)=C(C)C1=O [ubiquinone (Q10)] | slight stimulation

Tested on: human blood bacterium (HBB)
Format: cell-based
Conditions: not given
Remark: another data set of the same source
Method: Normally 1 ml of serum was added to 9 ml of medium. Larger flasks with a proportionately larger amount of serum and medium are used to produce bacteria in quantity. Modulators might be added to some flasks in 10× or higher concentration (corresponding to addition of 1 ml or less). When examining the effect of modulators, control flasks were prepared similarly without the addition of the modulator. Levels were observed microscopically (inverted phase microscope, observing the number of organisms per field crudely or by actual count) after incubation, typically at several points in time.
When multiple comparisons were done at once, they were done in 12 well or 24 well cell culture plates, most often the latter. With the latter, typically 1 ml of medium inoculated with serum is added to each well, with modulators added at 10× or higher concentration (0.1 ml or less). When comparisons are done in well plates, control wells without any additions are included. Levels were observed microscopically (inverted phase microscope) after incubation, typically at several points in time. The well plate cultures were also used for antibiotic sensitivity testing.
These procedures are those known in the art and include uses of antibodies and DNA probes, Western and Southern blots, PCR and the diagnostic kits therefor. First, organisms can be quantified by culture. […] If a means is found to immobilize the bacteria to grow isolated colonies, counts will be more accurate. Quantification is used to follow the progress of treatment and to correlate HBB levels with specific disease syndromes. Quantification is used also for antibiotic sensitivity measurements, comparing the level of growth with antibiotic treatment to the level of growth without treatment. Such antibiotic sensitivity measurements establish the basis for the clinical choice of antibiotic drugs.

Row | Molecule | antibiotic sensitivity of HBB strains/isolates in culture | observed antibiotic and antifungal sensitivities (outcome, number of isolates)
64 | CC1(C)S[C@@H]2[C@H](NC(=O)[C@H](N)c3ccc(O)cc3)C(=O)N2[C@H]1C(=O)O [amoxicillin] | less sensitivity | 
65 | CC[C@H]1OC(=O)[C@H](C)[C@@H](O[C@H]2C[C@@](C)(OC)[C@@H](O)[C@H](C)O2)[C@H](C)[C@@H](O[C@@H]2O[C@H](C)C[C@H](N(C)C)[C@H]2O)[C@](C)(O)C[C@@H](C)CN(C)[C@H](C)[C@@H](O)[C@]1(C)O [azothromycin] | some strains show sensitivity; also recorded: often stimulate growth | no effect (6 isolates); also recorded: sensitive (7 isolates)
66 | CC1=C(C(=O)O)N2C(=O)[C@@H](NC(=O)[C@H](N)c3ccc(O)cc3)[C@H]2SC1 [cefadroxil] |  | no effect (1 isolate)
67 | CC1=C(C(=O)O)N2C(=O)[C@@H](NC(=O)[C@H](N)c3ccccc3)[C@H]2SC1 [cephalexin] |  | no effect (1 isolate)
68 | O=C(O)c1cn(C2CC2)c2cc(N3CCNCC3)c(F)cc2c1=O [ciprofloxacin] | Some strains are sensitive | no effect (5 isolates); also recorded: partially sensitive (1 isolate)

Same assay, conditions: 2 μg/ml

Row | Molecule | observed antibiotic and antifungal sensitivities (outcome, number of isolates)
69 | NCC[C@H](O)C(=O)N[C@@H]1C[C@H](N)[C@@H](O[C@H]2O[C@H](CN)[C@@H](O)[C@H](O)[C@H]2O)[C@H](O)[C@H]1O[C@H]1O[C@H](CO)[C@@H](O)[C@H](N)[C@H]1O [amikacin] | no effect (1 isolate)

Same assay, conditions: 20 μg/ml

Row | Molecule | observed antibiotic and antifungal sensitivities (outcome, number of isolates)
70 | Nc1ccc(O)c(C(=O)O)c1 [5-aminosalicylic acid] | no effect (4 isolates)

Same assay, conditions: concentration not printed

Row | Molecule | antibiotic sensitivity of HBB strains/isolates in culture
71 | CCN(CC)CCCC(C)Nc1ccnc2cc(Cl)ccc12 (centres unmarked) [chloroquin] | synergistic effect with a few isolates
